Assay results as given in paper PMC4492758 (Pharmacology Research & Perspectives, 2015).
Several values for one entry are separate records, joined by “and”; a condition that tells them apart may be missing. Equal values may be shown once. Entries after “also recorded” stand apart in the source; their conditions may differ. Where a name gives a salt, the structure may show the parent alone. Read-outs that look alike come from different tables or passages of the source. Marks after values point to notes of the source that are not given here.

Legend:
[1] = molecular target: rat serotonin transporter (Rattus norvegicus, UniProt P31652); experiment: Rat SERT binding, [3H]citalopram, rat cerebral cortex membranes
[2] = molecular target: Human adrenergic α1A (Homo sapiens, UniProt P35348); experiment: Off-target radioligand binding assay
Chain of Human adrenergic α1A (P35348 whole entry): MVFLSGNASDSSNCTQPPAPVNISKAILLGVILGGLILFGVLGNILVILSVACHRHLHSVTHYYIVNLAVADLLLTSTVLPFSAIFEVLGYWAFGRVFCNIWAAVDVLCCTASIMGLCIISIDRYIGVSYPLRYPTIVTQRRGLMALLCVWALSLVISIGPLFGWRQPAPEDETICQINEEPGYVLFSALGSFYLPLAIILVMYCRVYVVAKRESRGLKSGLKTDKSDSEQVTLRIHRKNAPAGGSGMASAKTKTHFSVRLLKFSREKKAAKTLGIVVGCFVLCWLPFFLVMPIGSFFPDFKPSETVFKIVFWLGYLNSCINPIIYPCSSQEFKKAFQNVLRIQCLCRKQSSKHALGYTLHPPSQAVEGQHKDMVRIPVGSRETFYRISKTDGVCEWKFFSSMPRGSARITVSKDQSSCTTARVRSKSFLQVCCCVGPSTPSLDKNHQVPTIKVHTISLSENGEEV

[3] = molecular target: Human adrenergic α1B (Homo sapiens, UniProt P35368); experiment: Off-target radioligand binding assay; settings: read-out: Percentage inhibition at 1 μmol/L
[4] = molecular target: Human adrenergic α2A (Homo sapiens, UniProt P08913); experiment: Off-target radioligand binding assay; settings: read-out: Percentage inhibition at 1 μmol/L
Chain of Human adrenergic α2A (P08913 whole entry): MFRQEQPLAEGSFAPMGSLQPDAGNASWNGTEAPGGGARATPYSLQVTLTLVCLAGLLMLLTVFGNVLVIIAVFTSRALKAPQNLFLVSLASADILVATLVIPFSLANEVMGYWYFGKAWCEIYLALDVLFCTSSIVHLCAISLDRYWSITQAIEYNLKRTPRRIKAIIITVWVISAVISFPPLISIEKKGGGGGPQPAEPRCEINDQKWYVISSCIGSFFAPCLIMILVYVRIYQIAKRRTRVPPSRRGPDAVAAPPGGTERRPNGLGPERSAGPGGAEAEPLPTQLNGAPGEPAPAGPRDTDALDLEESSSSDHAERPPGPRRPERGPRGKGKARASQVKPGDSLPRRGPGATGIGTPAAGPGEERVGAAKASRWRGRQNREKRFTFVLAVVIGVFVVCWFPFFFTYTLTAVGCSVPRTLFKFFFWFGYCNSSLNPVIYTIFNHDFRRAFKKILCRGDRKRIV

[5] = molecular target: Human adrenergic α2B (Homo sapiens, UniProt P18089); experiment: Off-target radioligand binding assay; settings: read-out: Percentage inhibition at 1 μmol/L
Chain of Human adrenergic α2B (P18089 whole entry): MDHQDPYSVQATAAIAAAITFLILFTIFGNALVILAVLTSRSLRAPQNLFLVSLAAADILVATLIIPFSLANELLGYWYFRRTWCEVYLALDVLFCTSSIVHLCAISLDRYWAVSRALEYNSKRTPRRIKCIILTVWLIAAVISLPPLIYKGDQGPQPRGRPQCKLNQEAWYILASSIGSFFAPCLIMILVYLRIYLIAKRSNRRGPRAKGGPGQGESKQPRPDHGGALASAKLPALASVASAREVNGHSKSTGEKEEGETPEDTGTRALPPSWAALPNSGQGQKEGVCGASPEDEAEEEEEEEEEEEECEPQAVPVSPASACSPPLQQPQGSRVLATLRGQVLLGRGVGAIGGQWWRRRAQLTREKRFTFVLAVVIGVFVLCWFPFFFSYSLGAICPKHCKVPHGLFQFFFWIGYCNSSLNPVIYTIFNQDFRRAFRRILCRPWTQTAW

[6] = molecular target: Human adrenergic α2C (Homo sapiens, UniProt P18825); experiment: Off-target radioligand binding assay; settings: read-out: Percentage inhibition at 1 μmol/L
[7] = molecular target: Human adrenergic β1 (Homo sapiens, UniProt P08588); experiment: Off-target radioligand binding assay; settings: read-out: Percentage inhibition at 1 μmol/L
[8] = molecular target: Human adrenergic β2 (Homo sapiens, UniProt P07550); experiment: Off-target radioligand binding assay; settings: read-out: Percentage inhibition at 1 μmol/L
[9] = molecular target: Human adrenergic β3 (Homo sapiens, UniProt P13945); experiment: Off-target radioligand binding assay; settings: read-out: Percentage inhibition at 1 μmol/L
[10] = molecular target: Human dopamine D1 (Homo sapiens, UniProt P21728); experiment: Off-target radioligand binding assay; settings: read-out: Percentage inhibition at 1 μmol/L
[11] = molecular target: Human dopamine D2L (Homo sapiens, UniProt P14416); experiment: Off-target radioligand binding assay; settings: read-out: Percentage inhibition at 1 μmol/L
Chain of Human dopamine D2L (P14416 whole entry): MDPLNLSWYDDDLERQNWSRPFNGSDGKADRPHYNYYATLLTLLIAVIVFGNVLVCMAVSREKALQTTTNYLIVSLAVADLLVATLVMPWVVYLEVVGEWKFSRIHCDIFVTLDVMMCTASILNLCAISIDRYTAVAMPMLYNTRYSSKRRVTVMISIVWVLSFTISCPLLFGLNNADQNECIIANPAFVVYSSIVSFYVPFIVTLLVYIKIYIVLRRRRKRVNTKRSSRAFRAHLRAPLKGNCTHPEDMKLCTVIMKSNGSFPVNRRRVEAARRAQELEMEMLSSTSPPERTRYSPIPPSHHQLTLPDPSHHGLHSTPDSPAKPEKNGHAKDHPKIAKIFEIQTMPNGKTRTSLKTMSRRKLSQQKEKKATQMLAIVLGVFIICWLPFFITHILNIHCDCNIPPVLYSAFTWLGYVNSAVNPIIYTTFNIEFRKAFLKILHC

[12] = molecular target: Human dopamine D3 (Homo sapiens, UniProt P35462); experiment: Off-target radioligand binding assay
Chain of Human dopamine D3 (P35462 whole entry): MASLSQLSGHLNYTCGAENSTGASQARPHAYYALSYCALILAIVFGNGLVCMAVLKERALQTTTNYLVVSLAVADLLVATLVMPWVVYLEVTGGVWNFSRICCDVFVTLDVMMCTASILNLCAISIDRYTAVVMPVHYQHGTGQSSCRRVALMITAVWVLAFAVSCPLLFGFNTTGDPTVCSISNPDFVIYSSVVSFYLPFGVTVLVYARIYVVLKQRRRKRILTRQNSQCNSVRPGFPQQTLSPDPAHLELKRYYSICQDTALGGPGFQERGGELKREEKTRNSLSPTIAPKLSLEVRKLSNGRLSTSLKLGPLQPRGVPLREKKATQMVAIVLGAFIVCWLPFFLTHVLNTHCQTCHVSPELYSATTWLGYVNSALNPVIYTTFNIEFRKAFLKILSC

[13] = test system: Rat GABAA; experiment: Off-target radioligand binding assay; settings: [3H] Flunitrazepam 0.88 nmol/L
[14] = molecular target: Human histamine H1 (Homo sapiens, UniProt P35367); experiment: Off-target radioligand binding assay
Chain of Human histamine H1 (P35367 whole entry): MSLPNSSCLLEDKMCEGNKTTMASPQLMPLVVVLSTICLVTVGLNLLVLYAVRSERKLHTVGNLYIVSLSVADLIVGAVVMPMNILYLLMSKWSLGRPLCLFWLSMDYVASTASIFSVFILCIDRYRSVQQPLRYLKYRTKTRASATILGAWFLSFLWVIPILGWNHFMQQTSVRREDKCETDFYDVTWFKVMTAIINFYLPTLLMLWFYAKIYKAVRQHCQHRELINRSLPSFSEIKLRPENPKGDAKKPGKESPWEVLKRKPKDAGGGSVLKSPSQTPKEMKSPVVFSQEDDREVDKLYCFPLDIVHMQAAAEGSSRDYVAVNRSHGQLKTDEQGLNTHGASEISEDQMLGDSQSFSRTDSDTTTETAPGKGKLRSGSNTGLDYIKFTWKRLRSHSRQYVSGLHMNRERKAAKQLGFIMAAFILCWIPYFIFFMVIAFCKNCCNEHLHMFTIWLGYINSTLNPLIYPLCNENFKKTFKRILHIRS

[15] = molecular target: Human histamine H2 (Homo sapiens, UniProt P25021); experiment: Off-target radioligand binding assay; settings: read-out: Percentage inhibition at 1 μmol/L
[16] = molecular target: Human musucarinic M1 (Homo sapiens, UniProt P11229); experiment: Off-target radioligand binding assay; settings: read-out: Percentage inhibition at 1 μmol/L
Chain of Human musucarinic M1 (P11229 whole entry): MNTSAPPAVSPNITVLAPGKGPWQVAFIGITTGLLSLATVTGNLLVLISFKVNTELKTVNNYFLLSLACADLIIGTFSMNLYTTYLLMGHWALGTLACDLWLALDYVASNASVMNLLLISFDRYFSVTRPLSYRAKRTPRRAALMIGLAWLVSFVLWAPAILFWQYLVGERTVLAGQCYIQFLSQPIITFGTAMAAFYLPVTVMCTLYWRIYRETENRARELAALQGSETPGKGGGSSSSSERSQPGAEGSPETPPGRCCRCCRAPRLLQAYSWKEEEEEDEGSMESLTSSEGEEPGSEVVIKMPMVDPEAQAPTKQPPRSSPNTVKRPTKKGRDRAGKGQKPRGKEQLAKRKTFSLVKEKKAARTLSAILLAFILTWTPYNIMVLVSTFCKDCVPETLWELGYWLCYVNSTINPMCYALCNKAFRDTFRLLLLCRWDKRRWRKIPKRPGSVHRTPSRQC

[17] = molecular target: Human musucarinic M2 (Homo sapiens, UniProt P08172); experiment: Off-target radioligand binding assay; settings: read-out: Percentage inhibition at 1 μmol/L
[18] = molecular target: Human opiate δ (Homo sapiens, UniProt P41143); experiment: Off-target radioligand binding assay; settings: read-out: Percentage inhibition at 1 μmol/L
Chain of Human opiate δ (P41143 whole entry): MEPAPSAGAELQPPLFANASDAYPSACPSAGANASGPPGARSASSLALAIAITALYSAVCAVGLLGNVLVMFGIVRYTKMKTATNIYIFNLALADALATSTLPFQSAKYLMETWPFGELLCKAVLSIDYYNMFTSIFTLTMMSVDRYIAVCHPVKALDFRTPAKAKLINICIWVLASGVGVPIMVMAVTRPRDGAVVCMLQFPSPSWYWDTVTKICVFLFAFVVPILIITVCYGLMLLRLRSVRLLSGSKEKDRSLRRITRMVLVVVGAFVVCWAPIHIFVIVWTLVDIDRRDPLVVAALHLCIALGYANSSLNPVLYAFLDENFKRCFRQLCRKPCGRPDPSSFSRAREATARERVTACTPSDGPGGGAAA

[19] = molecular target: Human opiate κ (Homo sapiens, UniProt P41145); experiment: Off-target radioligand binding assay; settings: read-out: Percentage inhibition at 1 μmol/L
[20] = molecular target: Human opiate μ (Homo sapiens, UniProt P35372); experiment: Off-target radioligand binding assay; settings: read-out: Percentage inhibition at 1 μmol/L
[21] = molecular target: guinea pig serotonin 5-HT4 (Cavia porcellus, UniProt O70528); experiment: Off-target radioligand binding assay; settings: read-out: Percentage inhibition at 1 μmol/L
[22] = molecular target: Human serotonin 5-HT1B (Homo sapiens, UniProt P28222); experiment: Off-target radioligand binding assay; settings: read-out: Percentage inhibition at 1 μmol/L
Chain of Human serotonin 5-HT1B (P28222 whole entry): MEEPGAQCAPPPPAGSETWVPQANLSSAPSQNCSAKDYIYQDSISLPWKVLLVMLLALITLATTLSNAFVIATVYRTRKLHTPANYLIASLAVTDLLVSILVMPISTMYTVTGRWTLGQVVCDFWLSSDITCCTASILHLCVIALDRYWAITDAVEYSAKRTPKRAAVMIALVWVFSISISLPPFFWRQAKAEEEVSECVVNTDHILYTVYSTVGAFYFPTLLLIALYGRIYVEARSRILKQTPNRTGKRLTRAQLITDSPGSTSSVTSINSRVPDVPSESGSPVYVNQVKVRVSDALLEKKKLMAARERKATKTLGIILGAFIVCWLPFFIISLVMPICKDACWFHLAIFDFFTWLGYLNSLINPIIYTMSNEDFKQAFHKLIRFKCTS

[23] = molecular target: Human serotonin 5-HT2A (Homo sapiens, UniProt P28223); experiment: Off-target radioligand binding assay; settings: read-out: Percentage inhibition at 1 μmol/L
[24] = molecular target: Human serotonin 5-HT2B (Homo sapiens, UniProt P41595); experiment: Off-target radioligand binding assay
Chain of Human serotonin 5-HT2B (P41595 whole entry): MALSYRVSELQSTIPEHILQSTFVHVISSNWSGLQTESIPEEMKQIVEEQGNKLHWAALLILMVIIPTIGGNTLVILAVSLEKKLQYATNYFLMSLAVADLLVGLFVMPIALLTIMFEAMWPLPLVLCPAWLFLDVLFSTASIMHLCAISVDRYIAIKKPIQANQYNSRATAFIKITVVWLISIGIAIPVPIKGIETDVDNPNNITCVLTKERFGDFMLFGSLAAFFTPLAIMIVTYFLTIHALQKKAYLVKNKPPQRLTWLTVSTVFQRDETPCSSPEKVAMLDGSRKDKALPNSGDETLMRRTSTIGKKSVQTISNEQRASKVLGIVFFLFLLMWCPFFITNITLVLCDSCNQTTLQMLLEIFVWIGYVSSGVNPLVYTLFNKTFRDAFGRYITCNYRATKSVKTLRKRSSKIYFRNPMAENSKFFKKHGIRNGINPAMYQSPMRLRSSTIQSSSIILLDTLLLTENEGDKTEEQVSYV

[25] = molecular target: Human serotonin 5-HT2C (Homo sapiens, UniProt P28335); experiment: Off-target radioligand binding assay; settings: read-out: Percentage inhibition at 1 μmol/L
[26] = molecular target: Human serotonin 5-HT3 (Homo sapiens, UniProt P46098); experiment: Off-target radioligand binding assay; settings: read-out: Percentage inhibition at 1 μmol/L
[27] = molecular target: Human serotonin 5-HT5A (Homo sapiens, UniProt P47898); experiment: Off-target radioligand binding assay; settings: read-out: Percentage inhibition at 1 μmol/L
[28] = molecular target: Human serotonin 5-HT6 (Homo sapiens, UniProt P50406); experiment: Off-target radioligand binding assay; settings: read-out: Percentage inhibition at 1 μmol/L
[29] = molecular target: Human serotonin 5-HT7 (Homo sapiens, UniProt P34969); experiment: Off-target radioligand binding assay
Chain of Human serotonin 5-HT7 (P34969 whole entry): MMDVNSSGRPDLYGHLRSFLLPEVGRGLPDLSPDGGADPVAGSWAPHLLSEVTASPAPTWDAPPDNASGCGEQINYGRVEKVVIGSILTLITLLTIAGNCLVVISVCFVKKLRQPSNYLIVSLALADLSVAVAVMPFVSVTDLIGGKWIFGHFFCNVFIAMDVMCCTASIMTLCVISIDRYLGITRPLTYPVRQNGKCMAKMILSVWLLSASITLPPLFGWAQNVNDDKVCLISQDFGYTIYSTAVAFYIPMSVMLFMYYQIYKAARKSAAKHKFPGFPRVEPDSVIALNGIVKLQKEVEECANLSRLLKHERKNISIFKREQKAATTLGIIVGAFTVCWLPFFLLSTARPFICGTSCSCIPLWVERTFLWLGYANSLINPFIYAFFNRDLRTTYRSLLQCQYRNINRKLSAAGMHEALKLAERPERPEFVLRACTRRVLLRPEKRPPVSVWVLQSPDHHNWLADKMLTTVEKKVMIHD

[30] = molecular target: pig catechol-O-methyltransferase (Sus scrofa, UniProt Q99028); assay type: biochemical; settings: read-out: percent inhibition
[31] = molecular target: human monoamine oxidase-A (Homo sapiens, UniProt P21397); experiment: Off-target enzyme assay, 14C-labeled substrate; assay type: biochemical; settings: read-out: percent inhibition
[32] = molecular target: human monoamine oxidase -B (Homo sapiens, UniProt P27338); experiment: Off-target enzyme assay, 14C-labeled substrate; assay type: biochemical; settings: read-out: percent inhibition
[33] = Pharmacokinetics of DSP-1053 in male rats; assay type: in vivo; settings: Crl:CD(SD), rat, plasma
[34] = test system: extracellular 5-HT levels in the rat frontal cortex; experiment: Rat microdialysis, extracellular 5-HT; assay type: in vivo; settings: for maximum increase of 5-HT extracellular levels, % of baseline value: 100 min after administration, mean ± SEM
[35] = test system: dopamine extracellular levels in the rat frontal cortex; experiment: Rat microdialysis, extracellular dopamine; assay type: in vivo; settings: any dose (1, 3, 10 mg kg^−1 p.o.)
[36] = test system: rats; experiment: Rat forced swimming test; assay type: in vivo; settings: vs vehicle
[37] = test system: sham-operated and olfactory bulbectomized rats; experiment: Olfactory bulbectomy model, emotional scoring; assay type: in vivo, rat
[38] = test system: sham-operated and olfactory bulbectomized rats; experiment: Olfactory bulbectomy model, open-field test; assay type: in vivo, rat
[39] = test system: Suncus murinus; experiment: Evaluation of emesis in Suncus murinus, experiment 1; assay type: in vivo; settings: for Number of animals vomited/tested: single dose, 60 min observation; for Total emetic episode: 1 h observation, animals that vomited
[40] = test system: Suncus murinus; settings: 60 mg kg^−1 po, 19 animals per group
[41] = test system: rats; experiment: Conditioned taste aversion test in rats; settings: 100 mg kg^−1; Day 4, 24 h after administration, vs vehicle
[42] = test system: Suncus murinus; settings: ref Mine et al. [2013], cited from earlier work; for Number of animals vomited/tested: single dose
[43] = molecular target: human 5-HT1A receptor (Homo sapiens, UniProt P08908); experiment: biochemical; settings: read-out: I.A. (intrinsic activity), GTPγS binding
[44] = read-out: Percentage inhibition at 1 μmol/L
[45] = olfactory bulbectomized animals, 0.3, 1 and 3 mg/kg, 1- and 2-week administration
[46] = sham-operated animals, 0.3, 1 and 3 mg/kg, 1- and 2-week administration
[47] = 1-week administration, vs vehicle
[48] = sham-operated animals, 2-week administration

## COCCOc1cc(CC2CCN(CCc3ccc4c(c3)C(=O)CCO4)CC2)ccc1Br.O=S(=O)(O)c1ccccc1 [DSP-1053, 6-(2-{4-[4-Bromo-3-(2-methoxyethoxy)benzyl]piperidin-1-yl}ethyl)-2,3-dihydro-4H-chromen-4-one benzenesulfonate]
[1]
  Ki: 0.489 ± 0.039 nM
[2]
  Ki: 528 ± 45 nM
[2]; [44]
  inhibition at 1 µM: 57%
[3]
  inhibition at 1 µM: 1%
[4]
  inhibition at 1 µM: 26%
[5]
  inhibition at 1 µM: 6%
[6]
  inhibition at 1 µM: 41%
[7]
  inhibition at 1 µM: 14%
[8]
  inhibition at 1 µM: 22%
[9]
  inhibition at 1 µM: 19%
[10]
  inhibition at 1 µM: 4%
[11]
  inhibition at 1 µM: 35%
[12]
  Ki: 249 ± 21 nM
[12]; [44]
  inhibition at 1 µM: 65%
[13]
  Percentage inhibition at 1 μmol/L: 8%
[14]
  Ki: 7.46 ± 0.2 nM
[14]; [44]
  inhibition at 1 µM: 93%
[15]
  inhibition at 1 µM: 37%
[16]
  inhibition at 1 µM: 9%
[17]
  inhibition at 1 µM: 21%
[18]
  inhibition at 1 µM: 10%
[19]
  inhibition at 1 µM: 0%
[20]
  inhibition at 1 µM: 2%
[21]
  inhibition at 1 µM: 26%
[22]
  inhibition at 1 µM: 47%
[23]
  inhibition at 1 µM: 35%
[24]
  Ki: 117 ± 28 nM
[24]; [44]
  inhibition at 1 µM: 79%
[25]
  inhibition at 1 µM: 20%
[26]
  inhibition at 1 µM: 0%
[27]
  inhibition at 1 µM: 2%
[28]
  inhibition at 1 µM: 14%
[29]
  Ki: 288 ± 35 nM
[29]; [44]
  inhibition at 1 µM: 73%
[30]
  inhibition at 1 µM: 0%
[31]
  inhibition at 1 µM: 5.28%
[32]
  inhibition at 1 µM: 0.19%
[33]; iv, 1 mg/kg
  clearance: 57.6 mL/min/kg
[33]; po, 10 mg/kg
  Tmax: ≤ 1 h
[34]; 3 mg kg^−1 p.o.
  maximum increase of 5-HT extracellular levels, % of baseline value: 180 ± 25.9%
[34]; 10 mg kg^−1 p.o.
  maximum increase of 5-HT extracellular levels, % of baseline value: 264 ± 58.0%
[34]; given once at 3 and 10 mg kg^−1
  extracellular 5-HT levels: dose-dependently increased
[35]
  dopamine extracellular levels in the rat frontal cortex: did not affect
[36]; 2-week consecutive administration, 1 mg kg^−1 p.o.
  immobility time: significantly decreased
[36]; 2-week consecutive administration, 1 mg kg^−1 p.o., listed as DSR-1053
  immobility time: significantly reduced
[37]; [45]
  emotional scores: reduced; also recorded: significant decrease
[37]; [46]
  emotional scores: no effect
[38]; [45]
  number of line crosses: reduced; also recorded: significant decrease
[38]; [46]
  number of line crosses: no effect
[39]; 10 mg kg^−1 po
  Number of animals vomited/tested: 0 and 0/6
[39]; 30 mg kg^−1 po
  Number of animals vomited/tested: 1 and 1/6
  Total emetic episode: 2
[39]; 60 mg kg^−1 po
  Number of animals vomited/tested: 3 and 3/6
[39]; 60 mg kg^−1 po, mean ± SEM
  Total emetic episode: 5.3 ± 1.0
[40]
  number of animals that showed emesis on the first day, of 19 animals: 9
[41]
  saccharin consumption: significantly inhibited

## Fc1ccc([C@@H]2CCNC[C@H]2COc2ccc3c(c2)OCO3)cc1 [Paroxetine, paroxetine hydrochloride, reference compound]
[36]; 2-week administration
  immobility time: no effect
[36]; 3-week administration, 3 and 10 mg kg^−1 p.o.
  immobility time: reduced immobility time
[37]; [47]
  emotional scores: did not alter
[37]; olfactory bulbectomized animals, 3 and 10 mg/kg, 2-week administration
  emotional scores: significant decrease
[37]; [48]
  emotional scores: no effect
[38]; [47]
  number of line crosses: did not alter
[38]; olfactory bulbectomized animals, 10 mg/kg, 2-week administration
  number of line crosses: significant decrease
[38]; [48]
  number of line crosses: no effect
[40]
  number of animals that showed emesis on the first day, of 19 animals: 12
[42]; 10 mg kg^−1 po
  Number of animals vomited/tested: 0/6
[42]; 10 mg kg^−1 po, listed as paroxetine
  Number of animals vomited/tested: 0
[42]; 30 mg kg^−1 po
  Number of animals vomited/tested: 2/6
[42]; 30 mg kg^−1 po, listed as paroxetine
  Number of animals vomited/tested: 2
[42]; 30 mg kg^−1 po, 1 h observation, animals that vomited
  Total emetic episode: 6.8
[42]; 60 mg kg^−1 po
  Number of animals vomited/tested: 6/6 ^*
[42]; 60 mg kg^−1 po, listed as paroxetine
  Number of animals vomited/tested: 6

## CC(C)NCC(O)COc1cccc2[nH]ccc12 (stereo not shown) [Pindolol, pindolol]
[43]
  Emax: 13.3 ± 3.8%
